Results as given in US20250051375A1, “ANTI-HIV COMPOUNDS” (Gilead Sciences, Inc., priority 2023, published 2025).
In brackets after ≈: the same amount, converted by molar mass. Where two headings read alike, the source gives them in different places.

Key:
[1] = target: bovine intestinal alkaline phosphatase (Bos taurus (Bovine), UniProt P19111); test: BiALP: conversion by bovine intestinal alkaline phosphatase; assay type: in vitro ADME; conditions: 2 μM substrate, 100 ng/mL iALP, Tris pH 7.8, 37° C., 60 minutes; for [Intermediate A] or [Amprenavir]: parent formed
bovine intestinal alkaline phosphatase, sequence (P19111 20-506): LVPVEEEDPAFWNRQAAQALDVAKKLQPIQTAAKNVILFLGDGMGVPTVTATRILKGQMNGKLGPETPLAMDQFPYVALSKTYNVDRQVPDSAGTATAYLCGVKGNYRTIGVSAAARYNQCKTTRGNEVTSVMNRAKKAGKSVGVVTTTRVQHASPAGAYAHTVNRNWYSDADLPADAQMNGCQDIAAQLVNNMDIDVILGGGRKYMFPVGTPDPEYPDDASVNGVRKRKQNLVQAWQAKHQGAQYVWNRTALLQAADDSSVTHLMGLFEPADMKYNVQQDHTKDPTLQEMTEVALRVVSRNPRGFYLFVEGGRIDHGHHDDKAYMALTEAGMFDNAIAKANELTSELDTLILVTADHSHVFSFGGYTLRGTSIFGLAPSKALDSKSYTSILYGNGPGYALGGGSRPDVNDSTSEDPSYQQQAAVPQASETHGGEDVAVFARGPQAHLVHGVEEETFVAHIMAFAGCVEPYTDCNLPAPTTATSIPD
Description: Fosamprenavir and its parent compound (amprenavir) were purchased from Millipore Sigma (St. Louis, MO). Test compounds, Intermediate A, fosamprenavir, and amprenavir were each separately dissolved in dimethyl sulfoxide (DMSO) at a concentration of 10 mM to form stock solutions.
All other chemicals were purchased from Millipore Sigma (St. Louis, MO) and Thermo Fisher Scientific (Waltham, MA). […] Internal Standard/Quench (IS/Q) was 100 nM labetalol in 99:1 (v/v) acetonitrile/formic acid.
Incubations were performed with Tris buffer alone (0.1 M Tris-HCl pH 7.8 containing 1 mM MgCl2 and 1 mM ZnCl2) or the same Tris buffer further containing 100 ng/mL iALP (0.01 units/mL). Triplicate 100 μL aliquots of Tris buffer±iALP were warmed to 37° C. and the reactions were initiated by the addition of the test compound or fosamprenavir to obtain final substrate concentrations of 2 μM. Incubations were then continued at 37° C. At 60 minutes, reactions were terminated by the addition of 200 μl of IS/Q and mixed by pipette. […] Aliquots (150 μL) of the supernatants were transferred to fresh plates containing 150 μL of water. Aliquots (15 μL) of the diluted supernatants were analyzed by mass spectrometry as described below.
Quantification of the test compounds and fosamprenavir was performed by analyte/internal standard peak area ratios (PARs) with comparison to 2 μM Intermediate A and amprenavir, respectively. The LC instrumentation consisted of a Thermo Scientific Vanquish pump and a Thermo Hypersil Gold column (1.9 μm particle size, 2.1×50 mm). […] The MS instrument was a Thermo Q Exactive™ Plus operating in positive ionization mode with mass tolerance of 5 ppm and calibrated on a twice weekly basis.

HIV-1 IIIB strain = test: MT-4 HIV Wild Type Virus Infection Assay (IIIB Virus); assay type: cell-based; conditions: Human immunodeficiency virus 1, IIIB, MT4, 120 h, MT-4 cells acutely infected with HIV-1 IIIB, 5 day incubation, Cell-titer glo
Description: Test compounds and controls were serially diluted and spotted in replicate into 384 well black assay plates via acoustic transfer (Echo). MT-4 cells were grown in batch, centrifuged and resuspended into fresh CCM media (RPMI w/10% FBS, 1% PS) at 2×10^6 cells/ml. MT-4 cells were acutely infected with HIV-1 IIIB strain. The size of each infection mix was scaled by the number of sample plates to be tested. Each infection mix was transferred into 5 mL closed tubes and nutated rapidly on a shaker at 37° C. incubator for 1 hour. The infection mixes were then diluted 25× in fresh cell culture media and then added to assay plates at 40 μL per well using a ViaFlo 384 pipettor. After 5 day incubation at 37° C. in a CO2 incubator, assay plates were processed with Cell-titer glo reagent using a ViaFlo 384 with an addition/mixing program. Plates were read immediately on Envision reader. Assay signals were plotted and dose response curves generated to determine individual compound EC50s.

PBS Stability Assay = assay type: physicochemical; conditions: buffer, pH 7.4, 2 μM, phosphate buffered saline pH 7.4; read-out: PBS T½
Description: Reagents. Stock solutions of test compounds in dimethyl sulfoxide (DMSO) having a final concentration of 10 mM were prepared and used in all experiments. Sekisui XenoTech (Kansas City, KS) provided pooled intestinal S9 fractions. All other chemicals were purchased from Sigma-Aldrich (St. Louis, MO) or VWR (West Chester, PA). Internal Standard/Quench (IS/Q) used to stop reactions was 100 nM labetalol in (by volume) formic acid (1%) and acetonitrile (99%).
PBS Stability Assay: For each test compound, an aliquot of the test compound was added to phosphate buffered saline (137 mM NaCl, 2.7 mM KCl, 10 mM phosphate buffer), pH 7.4. The incubation was initiated by the addition of the test compound to PBS to a final concentration of 2 μM. At 0, 10, 20, 30, 60 and 120 min, 25 μL aliquots of the incubation mixture were transferred to plates containing 225 μl of IS/Q solution. After quenching, the plates were centrifuged at 3000×g for 30 minutes. 150 μL aliquots of each supernatant were transferred to new plates and 150 μL water was added. Aliquots (10 μL) of the prepared samples were analyzed on a Thermo Q-Exactive mass spectrometer as described below.
Liquid Chromatography-Mass Spectrometry: Quantification of test compounds and control substrate was performed by analyte/internal standard peak area ratio (PAR) values measured on a Thermo Q-Exactive mass spectrometer coupled to a Dionex UltiMate 3000 HPLC with a Leap Technologies HTC PAL autosampler. The column used for analysis was a Thermo Scientific Hypersil GOLD (1.9 μm particle size, 50×2.1 mm). Mobile phase A consisted of 0.1% (v/v) formic acid in water. Mobile phase B consisted of 0.1% (v/v) formic acid in acetonitrile. Elution of analytes was achieved by a series of linear gradients varying the proportions of A and B. The mass spectrometer was calibrated on a weekly basis and mass tolerance of 5 ppm was used.
Data Analysis. Metabolic stabilities were determined by measuring the rates of disappearance of test compound and positive control substrate. Data (% of substrate remaining) were plotted on a semi-log scale and fitted using an exponential decline model:
where • Ct% of substrate remaining at time=t • C0% of substrate remaining at time=0 • t time • T½ half-life • The Half-life (T½) is determined by the following equation:
[formula] • Assuming a first-order reaction, the slope (k) is extrapolated from the aforementioned plotted data.

Solubility in FaSSIF = conditions: 23 °C, pH 6.5, fassif, thermodynamic from solid
Description: Buffer Preparation: Fasted State Simulated Intestinal Fluid (FaSSIF): Simulated Intestinal Fluid (SIF) powder containing a complex of Taurocholate and Lecithin (4:1 molar ratio) was obtained from Biorelevant. 0.056 g of SIF powder was added to 25 mL of buffer, adjusted to pH 6.5, containing 0.011 g of NaOH (pellets), 0.099 g of NaH2PO4 (monohydrate), and 0.155 g of NaCl. The buffer was prepared with HPLC H2O. The SIE powder was stirred until completely dissolved and allowed to stand for 2 hours.
Test Compounds: Each test compound was placed in a vial containing approximately 7 mg of material. Aliquots were weighed out for each assay media at each time point to be analyzed. The buffer was added to each vial such that the final dose concentration of 5 mg/mL was achieved. Samples were then vortexed for 5-10 seconds.
The plate was sealed with a pierceable heat seal and analyzed by HPLC-UV.

| Structure (SMILES) | [Compound] [1] [nM] | EC50 (HIV-1 IIIB strain) [nM] | half-life at 2 μM (PBS Stability Assay) [h] | EC50 (HIV-1 IIIB strain; read-out: EC50) [nM] | solubility at 2 h (Solubility in FaSSIF) [µg/mL] | biALP Intermediate A or [Amprenavir] (% of total) [1] | [Intermediate A] or [Amprenavir] [1] [nM] |
| --- | --- | --- | --- | --- | --- | --- | --- |
| CC(C)CN(C[C@@H](OP(=O)(O)O)[C@H](Cc1ccccc1)NC(=O)O[C@H]1CCOC1)S(=O)(=O)c1ccc(N)cc1 [Fosamprenavir, fosamprenavir, reference compound] | 1605 | – | – | – | – | – | – |
| COC(=O)N[C@H](C(=O)N[C@@H](Cc1ccc(C#Cc2cnc(N3CC4CCC(C3)N4C3COC3)nc2)cc1)[C@H](CN(Cc1c(F)cc(-c2ccn(C(F)F)n2)cc1F)NC(=O)[C@@H](NC(=O)OC)C(C)(C)C(F)(F)F)OC(=O)CC(C)(C)c1c(CC(=O)N([C@H](C)C(=O)O)S(=O)(=O)O)cc(C)cc1OP(=O)(O)O)C(C)(C)C(F)(F)F [Example 32] | 1435.5 | – | – | – | – | – | – |
| COC(=O)N[C@H](C(=O)N[C@@H](Cc1ccc(C#Cc2ccc(N3CC4CCC(C3)N4C3COC3)nc2)cc1)[C@H](CN(Cc1c(F)cc(-c2ccn(C(F)F)n2)cc1F)NC(=O)[C@@H](NC(=O)OC)C(C)(C)C(F)(F)F)OC(=O)CC(C)(C)c1c(CC(=O)NC(CC(=O)O)C(=O)O)cc(C)cc1CP(=O)(O)O)C(C)(C)C(F)(F)F (stereo partly shown) [Example 23] | 2107.1 | – | – | – | – | – | – |
| COC(=O)N[C@H](C(=O)N[C@@H](Cc1ccc(C#Cc2cnc(N3CC4CCC(C3)N4C3COC3)nc2)cc1)[C@H](CN(Cc1c(F)cc(-c2ccn(C(F)F)n2)cc1F)NC(=O)[C@@H](NC(=O)OC)C(C)(C)C(F)(F)F)OC(=O)CC(C)(C)c1c(CC(=O)N([C@H](C)C(=O)O)S(=O)(=O)O)cccc1OP(=O)(O)O)C(C)(C)C(F)(F)F [Example 39] | 1310.3 | – | – | – | – | – | – |
| COC(=O)N[C@H](C(=O)N[C@@H](Cc1ccc(C#Cc2cnc(N3CC4CCC(C3)N4C3COC3)nc2)cc1)[C@H](CN(Cc1c(F)cc(-c2ccn(C(F)F)n2)cc1F)NC(=O)[C@@H](NC(=O)OC)C(C)(C)C(F)(F)F)OC(=O)OCOC(=O)CC(C)(C)c1c(CC(=O)N2CCN(S(C)(=O)=O)CC2)cc(C)cc1OP(=O)(O)O)C(C)(C)C(F)(F)F [Example 84] | 1594.8 | 3.9 | 3.02 | – | – | – | – |
| COC(=O)N[C@H](C(=O)N[C@@H](Cc1ccc(C#Cc2cnc(N3CC4CCC(C3)N4C3COC3)nc2)cc1)[C@H](CN(Cc1c(F)cc(-c2ccn(C(F)F)n2)cc1F)NC(=O)[C@@H](NC(=O)OC)C(C)(C)C(F)(F)F)OC(=O)OCOC(=O)CC(C)(C)c1c(C)cc(C)cc1OP(=O)(O)O)C(C)(C)C(F)(F)F [Example 12] | – | – | 4.92 | 23.4 | – | – | – |
| COC(=O)N[C@H](C(=O)N[C@@H](Cc1ccc(C#Cc2cnc(N3CC4CCC(C3)N4C3COC3)nc2)cc1)[C@H](CN(Cc1c(F)cc(-c2ccn(C(F)F)n2)cc1F)NC(=O)[C@@H](NC(=O)OC)C(C)(C)C(F)(F)F)OC(=O)OCOC(=O)CC(C)(C)c1c(CC(=O)N2CCCC2C(=O)O)cc(C)cc1OP(=O)(O)O)C(C)(C)C(F)(F)F (stereo partly shown) [Example 78] | 2070.6 | 3.1 | – | – | 4390 (≈ 2650 µM) | – | – |
| COC(=O)N[C@H](C(=O)N[C@@H](Cc1ccc(C#Cc2cnc(N3CC4CCC(C3)N4C3COC3)nc2)cc1)[C@H](CN(Cc1c(F)cc(-c2ccn(C(F)F)n2)cc1F)NC(=O)[C@@H](NC(=O)OC)C(C)(C)C(F)(F)F)OC(=O)OCOC(=O)CC(C)(C)c1c(CC(=O)N2CCN(CC(=O)O)CC2)cc(C)cc1OP(=O)(O)O)C(C)(C)C(F)(F)F [Example 77] | 2259 | 8.3 | – | – | 2760 (≈ 1640 µM) | – | – |
| COC(=O)N[C@H](C(=O)N[C@@H](Cc1ccc(C#Cc2cnc(N3CC4CCC(C3)N4C3COC3)nc2)cc1)[C@H](CN(Cc1c(F)cc(-c2ccn(C(F)F)n2)cc1F)NC(=O)[C@@H](NC(=O)OC)C(C)(C)C(F)(F)F)OC(=O)CC(C)(C)c1c(CC(=O)N2CCN(S(N)(=O)=O)CC2)cc(C)cc1OP(=O)(O)O)C(C)(C)C(F)(F)F [Example 81, (5S,10S,11S,14S)-8-(4-(1-(difluoromethyl)-1H-pyrazol-3-yl)-2,6-difluorobenzyl)-11-(4-((2-(8-(oxetan-3-yl)-3,8-diazabicyclo[3.2.1]octan-3-yl)pyrimidin-5-yl)ethynyl)benzyl)-3,6,13,16-tetraoxo-5,14-bis(1,1,1-trifluoro-2-methylpropan-2-yl)-2,17-dioxa-4,7,8,12,15-pentaazaoctadecan-10-yl 3-methyl-3-(4-methyl-2-(2-oxo-2-(4-sulfamoylpiperazin-1-yl)ethyl)-6-(phosphonooxy)phenyl)butanoate] | 2385.2 | 627 | – | – | < 1000 | 0 % of total | 0 |
| COC(=O)N[C@H](C(=O)N[C@@H](Cc1ccc(C#Cc2cnc(N3CC4CCC(C3)N4C3COC3)nc2)cc1)[C@H](CN(Cc1c(F)cc(-c2ccn(C(F)F)n2)cc1F)NC(=O)[C@@H](NC(=O)OC)C(C)(C)C(F)(F)F)OC(=O)CC(C)(C)c1c(CC(=O)N2CCN(S(C)(=O)=O)CC2)cc(C)cc1OP(=O)(O)O)C(C)(C)C(F)(F)F [Example 80, (5S,10S,11S,14S)-8-(4-(1-(difluoromethyl)-1H-pyrazol-3-yl)-2,6-difluorobenzyl)-11-(4-((2-(8-(oxetan-3-yl)-3,8-diazabicyclo[3.2.1]octan-3-yl)pyrimidin-5-yl)ethynyl)benzyl)-3,6,13,16-tetraoxo-5,14-bis(1,1,1-trifluoro-2-methylpropan-2-yl)-2,17-dioxa-4,7,8,12,15-pentaazaoctadecan-10-yl 3-methyl-3-(4-methyl-2-(2-(4-(methylsulfonyl)piperazin-1-yl)-2-oxoethyl)-6-(phosphonooxy)phenyl)butanoate] | 2507.9 | 735 | – | – | < 1000 | 0 % of total | 0 |
